Legend:
VCAM-1 gene expression [1] = assay: TNF-α induced VCAM-1 gene expression in primary rat bronchoaveolar macrophage cells; type: cell-based
Description: (§1) Experiments were conducted to analyze for the effect of 5-HT2A receptor activation on proinflammatory marker expression in other cell types. Human neuroblastoma cells (SHSY5Y) and rat glioma cells (C6) can be obtained from the American Type Culture Collection (Manassas, Va.), but were provided Purdue University. The cells were grown in DMEM+10% FBS. DMEM was made and provided by the Cell and Molecular Core of the Mentoring in Cardiovascular Biology COBRE center at LSUHSC-NO. FBS was purchased from Invitrogen (Carlsbad, Calif.). Primary rat aortic endothelial cells were prepared fresh and provided by the Cell and Molecular Core of the Mentoring in Cardiovascular Biology COBRE center at LSUHSC-NO. Cells were tested at passages 3-4. Cells were grown in endothelial cell growth medium (Cell Applications, Inc.). Primary rat bronchoaveolar macrophage cells were obtained by lung lavage from rats and used at day 3 or 4 post plating in DMEM+10% FBS.
(§2) All treatments with 5-HT2A receptor agonists occurred 1 hour prior to the addition of TNF-alpha (10 ng/ml) or LPS (100 ng or 1 mg) depending on the experiment. All RNA isolations, cDNA synthesis, QPCR gene expression assays examining ICAM1, VCAM1, and IL6, and data analysis were performed as described above in Example 1, except the primers were different for the human cell experiment. […]

ICAM-1 gene expression [2] = assay: TNF-α induced ICAM-1 gene expression in primary rat aortic smooth muscle cells; type: cell-based; details: for IC50: Rattus norvegicus
Description: RASM cells and treatment. Rat aortic smooth muscle (RASM) cells were isolated from adult 180 g male Sprague-Dawley rats and provided by the Cell and Molecular Core Facility in the Department of Pharmacology at LSUHSC-NO. Isolated RASM cells were grown in M-199 media containing 10% fetal bovine serum (Gibco), 100 units/mL penicillin, and 100 µg/mL streptomycin, and incubated at 37° C. in 5% CO2. Cells for all assays were used between passages 3 and 5. Prior to treatments, cells were grown in M-199 media with 10% fetal bovine serum (FBS) until 30-50% confluent. For most assays, cells were treated with (R)-DOI, or other drugs as indicated, at specific concentrations for 24 hours, followed by TNF-α (10 ng/ml) and (R)-DOI at the same pretreatment concentrations in fresh M-199 media. After another 24 hours, the cells were scraped, pelleted, and processed for RNA.
RNA isolation and Quantitative Realtime-PCR. RNA was extracted from cells using Illustra RNAspin Mini kits from GE Healthcare Life Sciences (Piscataway, N.J.) following protocols supplied by the manufacturer. First strand cDNA was generated using the ImProm-II cDNA synthesis kit (Promega) following the manufacturers protocols. Q-RT-PCR was performed using the ProbeLibrary system from Roche (Indianapolis, Ind.) in combination with the HotStart-IT probe qpcr master mix from USB Biological (Cleveland, Ohio) following manufactures protocols.
Primers were synthesized by IDT (Coralville, Iowa). ProbeLibrary probes from Roche were: U3, U74, U13, U106, U79 for 5-HT2AR, ICAM-1, VCAM-1, IL-6, and cyclophillin B, respectively. Quantitative determination of gene expression levels using a 2-step cycling protocol was performed on a MyIQ-5 Cycler (Bio-Rad, Hercules Calif.). Relative gene expression levels were calculated using the 2^[−ΔΔC(T)] method. Levels of all targets from the test samples were normalized to rat cyclophillin B expression.
To examine the effects of 5-HT2A receptor activation on TNF-α mediated proinflammatory gene expression, RASM cells were pretreated with (R)-DOI, a selective 5-HT2 receptor agonist, as described above. Dose-response curves were determined for the effects on ICAM-1, VCAM-1, and IL-6 gene expression for twelve different concentrations of (R)-DOI ranging from 0.1 pM to 100 nM, with each experiment repeated in triplicate. In FIGS. 1A-1C, the Y-axis represents a percent of TNF-α for the dose of (R)-DOI indicated on the X-axis.

ICAM-1 gene expression [3] = assay: TNF-α induced ICAM-1 gene expression in human neuroblastoma cells (SHSY5Y); type: cell-based
Description: as §1, §2

VCAM-1 gene expression [4] = assay: TNF-α induced VCAM-1 gene expression in rat primary aortic endothelial cells; type: cell-based; details: 10 pM, 60 minutes prior to TNF-alpha 10 ng/ml
Description: as §1, §2

IL-6 expression = assay: TNF-α induced IL-6 expression in rat primary aortic endothelial cells; type: cell-based; details: 10 pM, 60 minutes prior to TNF-alpha 10 ng/ml
Description: as §1, §2

[5] = test system: nuclear translocation of p65; assay: Nuclear translocation of NF-κB subunit p65 in RASM cells; type: cell-based, rat; details: 1 nM, 24 hours or one hour before or together with TNF-α 10 ng/ml
Description: Nuclear Translocation of p65. RASM cells were grown in M-199 medium+10% FBS until 50% confluent in 8 well chamber slides. Cells were treated with 1 nM (R)-DOI for various times as indicated, and TNF-α (10 ng/ml; tumor necrosis factor alpha) added. Thirty minutes after TNF-α treatment, cells were fixed and processed with rabbit anti p65 primary and Alexafluor 488-conjugated goat secondary antibodies as described in Zerfaoui et al. (2008) (Zerfaoui et al., 2008). Fluorescent signal was visualized on a Leica DMRA2 fluorescent microscope.
Both ICAM-1 and VCAM-1 gene transcription during inflammatory processes is regulated by the transcription factor NF-κB (Collins et al., 1995). During this process, NF-κB must be activated, and then translocated from the cytoplasm to the nucleus, where it promotes gene transcription. To investigate whether 5-HT2A receptor stimulated inhibition of NF-κB activation and translocation might be a possible mechanism for blockade of proinflammatory gene expression changes, a series of immunohistochemical experiments were conducted examining p65 translocation in RASM cells. TNF-α treatment for 30 minutes caused the expected dramatic shift in localization of the p65 subunit of NF-κB from the cytoplasm to the nucleus (FIG. 7A). […]

ICAM-1 gene expression [6] = assay: LPS stimulated ICAM-1 gene expression in primary rat aortic smooth muscle cells; type: cell-based; details: 60 minute pretreatment, 100 nM
Description: All treatments with 5-HT2A receptor agonists occurred 1 hour prior to the addition of TNF-alpha (10 ng/ml) or LPS (100 ng or […]) depending on the experiment. All RNA isolations, cDNA synthesis, QPCR gene expression assays examining ICAM1, VCAM1, and IL6, and data analysis were performed as described above in Example 1, except the primers were different for the human cell experiment. The human gene PCR primer sequences and universal probe numbers were as follows: cyclophillin (control amplicon; Probe U64): forward primer, 5′-[…]-3′ (SEQ ID NO: 11), reverse primer, 5′-[…]-3′ (SEQ ID NO: 12); and human ICAM-1 (Probe U71, intracellular adhesion molecule 1): forward primer, 5′-[…]-3′ (SEQ ID NO: 13), reverse primer, 5′-[…]-3′ (SEQ ID NO: 14).
The effect of (R)-DOI (60 minute pretreatment) on the expression of ICAM-1 in primary rat aortic smooth muscle cells after stimulation with LPS was examined. […] At a higher dose of LPS (1 μg), there was no effect of (R)-DOI on the increase in ICAM-1.

COc1cc(C[C@@H](C)N)c(OC)cc1I [(R)-DOI, (R)-1-(2,5-dimethoxy-4-iodophenyl)-2-aminopropane]
effect on VCAM-1 gene expression in rat bronchoaveolar macrophage cells (VCAM-1 gene expression [1]): potently blocked | IC50 (VCAM-1 gene expression [1]; Rattus norvegicus, Macrophage, 1 hour prior to TNF-α 10 ng/ml, read-out: IC50 for VCAM-1 gene expression inhibition in rat bronchoaveolar macrophage cells): ~0.02 nM | block of TNF-α induced ICAM1 gene expression at 1 nM (ICAM-1 gene expression [2]; 1 nM pretreatment, VCAM1 and IL6 identical): blocked gene expression | block of TNF-α effect on ICAM-1 expression with 24 hour and one hour pretreatments and simultaneous treatment (ICAM-1 gene expression [2]; 1 nM, TNF-α 10 ng/ml): completely blocked | IC50 (ICAM-1 gene expression [2]; RASM passage 4, media with FBS, 24 h pretreatment, TNF-α 10 ng/ml, read-out: IC50 for proinflammatory gene expression inhibition for ICAM-1): 0.0195 nM | IC50 (ICAM-1 gene expression [2]; RASM passage 4, serum starved for 8 hours, read-out: IC50 for ICAM-1 gene expression inhibition in serum-free media): 0.36 nM | effect on ICAM-1 gene expression in human neuroblastoma cells (ICAM-1 gene expression [3]): blocked | IC50 (ICAM-1 gene expression [3]; Homo sapiens, Neuroblastoma cell, 1 hour prior to TNF-α 10 ng/ml, read-out: IC50 for ICAM-1 gene expression inhibition in human neuroblastoma cells): ~0.8 nM | effect on TNF-alpha induced increase in VCAM-1 gene expression in aortic endothelial cells (VCAM-1 gene expression [4]): less potent | effect on TNF-α-induced IL-6 expression in aortic endothelial cells (IL-6 expression): potently inhibited | effect on TNF-α induced p65 nuclear translocation [5]: completely blocked | effect on ICAM-1 induction by low dose of LPS (ICAM-1 gene expression [6]; LPS 100 ng): able to block the response | effect on ICAM-1 increase by higher dose of LPS (ICAM-1 gene expression [6]; LPS 1 μg): no effect

From US9642819B2, “Low dosage serotonin 5-HT2A receptor agonist to suppress inflammation” (BOARD OF SUPERVISORS OF LOUISIANA STATE UNIVERSITY AND …, priority 2008, dated 2017)
